The assay addresses recombinant DYRK1A kinase (Homo sapiens, UniProt Q13627). The assay is described as follows: DYRK1A kinase assay (Ser/Thr 18 peptide Z-lyte FRET). In kind it is biochemical. Conditions: DYRK1A 0.25 μg/mL, ATP 15 μM, Ser/Thr peptide 18 4 μM, one hour at room temperature, 11-point dose-response from 10 μM. The procedure:
Representative compounds were screened using the assay procedure for DYRK1A kinase activity as described below.
Each compound was dissolved in DMSO as a 10 mM stock and used to prepare compound source plates. Serial dilution (1:3, 11-point dose-response curves from 10 μM to 0.00016 μM) and compound transfer was performed using the ECHO 550 (Labcyte, Sunnyvale, CA) into 1536-well black-walled round bottom plates (Corning).
The DYRK1A kinase assay was run using the Ser/Thr 18 peptide Z-lyte assay kit according to manufacturer's instructions (Life Technologies—a Division of Thermo-Fisher). This is a non-radioactive assay using fluorescence resonance energy transfer (FRET) between coumarin and fluorescein to detect kinase activity which is represented as a ratio of coumarin emission/fluorescein emission.
Briefly, recombinant DYRK1A kinase, ATP and Ser/Thr peptide 18 were prepared in 1× Kinase buffer to final concentrations of 0.25 μg/mL, 15 μM, and 4 μM respectively. The mixture was allowed to incubate with the representative compounds for one hour at room temperature. All reactions were performed in duplicate. Unphosphorylated (“0% Control”) and phosphorylated (“100% control”) forms of Ser/Thr 18 served as control reactions. Additionally, an 11-point dose-response curve of Staurosporine (1 uM top) was run to serve as a positive compound control.
After incubation, Development Reagent A was diluted in Development Buffer then added to the reaction and allowed to further incubate for one hour at room temperature. The plate was read at Ex 400 Em 455 to detect the coumarin signal and Ex 400 Em 520 to measure the signal (EnVision Multilabel Plate Reader, PerkinElmer).
The Emission ratio (Em) was calculated as a ratio of the coumarin (C) emission signal (at 445 nm)/Fluorescein (F) emission signal (at 520 nm). The percent phosphorylation was then calculated using the following formula: [1−((Em ratio×F100%)−C100%)/((C0%−C100%)+(Em ratio×(F100%−F0%)))]. Dose-response curves were generated, and inhibitory concentration (IC50) values were calculated using non-linear regression curve fit in the Dotmatics' Studies Software (Bishops Stortford, UK).
Turning to `CN1CC[C@H](Nc2nc(N)c3c(-c4ccc5ncn(CC(F)F)c5n4)ccn3n2)[C@H](F)C1` [Compound 120, 5-(3-(2,2-Difluoroethyl)-3H-imidazo[4,5-b]pyridin-5-yl)-N^2-((3R,4S)-3-fluoro-1-methylpiperidin-4-yl)pyrrolo[2,1-f][1,2,4]triazine-2,4-diamine], the IC50 (commonly the concentration needed to halve the response being measured) stood at 0.7 nM. To `COCCN1CC[C@H](Nc2nc(N)c3c(-c4ccc5ncn(CC(F)F)c5n4)ccn3n2)[C@H](F)C1` [Compound 121, 5-(3-(2,2-difluoroethyl)-3H-imidazo[4,5-b]pyridin-5-yl)-N^2-((3R,4S)-3-fluoro-1-(2-methoxyethyl)piperidin-4-yl)pyrrolo[2,1-f][1,2,4]triazine-2,4-diamine] belongs 0.8 nM; to `Nc1nc(N[C@@H]2CCN(C3COC3)C[C@@H]2F)nn2ccc(-c3ccc4ncn(CC(F)F)c4n3)c12` [Compound 122, 5-(3-(2,2-Difluoroethyl)-3H-imidazo[4,5-b]pyridin-5-yl)-N^2-((3S,4R)-3-fluoro-1-(oxetan-3-yl)piperidin-4-yl)pyrrolo[2,1-f][1,2,4]triazine-2,4-diamine], 1.1 nM; to `C[C@]1(O)CC[C@H](Nc2nc(N)c3c(-c4ccc5ncn(CC(F)(F)F)c5n4)ccn3n2)CC1` [Compound 123, (1r,4r)-4-((4-Amino-5-(3-(2,2,2-trifluoroethyl)-3H-imidazo[4,5-b]pyridin-5-yl)pyrrolo[2,1-f][1,2,4]triazin-2-yl)amino)-1-methylcyclohexan-1-ol], 1.9 nM.

In the case of `CN1C[C@@H](Nc2nc(N)c3c(-c4ccc5ncn(CC(F)(F)F)c5n4)ccn3n2)C(F)(F)C1` [Compound 124, (R)—N^2-(4,4-Difluoro-1-methylpyrrolidin-3-yl)-5-(3-(2,2,2-trifluoroethyl)-3H-imidazo[4,5-b]pyridin-5-yl)pyrrolo[2,1-f][1,2,4]triazine-2,4-diamine], the IC50 came out at 1 nM. As for `CN1CC[C@H](Nc2nc(N)c3c(-c4ccc5ncn(CC(F)(F)F)c5n4)ccn3n2)[C@H](F)C1` [Compound 125, N^2-((3R,4S)-3-Fluoro-1-methylpiperidin-4-yl)-5-(3-(2,2,2-trifluoroethyl)-3H-imidazo[4,5-b]pyridin-5-yl)pyrrolo[2,1-f][1,2,4]triazine-2,4-diamine], the IC50 stood at 1.7 nM.

Turning to `COCCN1CC[C@H](Nc2nc(N)c3c(-c4ccc5ncn(CC(F)(F)F)c5n4)ccn3n2)[C@H](F)C1` [Compound 126, N^2-((3R,4S)-3-Fluoro-1-(2-methoxyethyl)piperidin-4-yl)-5-(3-(2,2,2-trifluoroethyl)-3H-imidazo[4,5-b]pyridin-5-yl)pyrrolo[2,1-f][1,2,4]triazine-2,4-diamine], the IC50 came to 1.3 nM. The same measure for `CC(=O)N1CC[C@H](Nc2nc(N)c3c(-c4ccc5ncn(CC(F)(F)F)c5n4)ccn3n2)[C@H](F)C1` [Compound 127, 1-((3R,4S)-4-((4-Amino-5-(3-(2,2,2-trifluoroethyl)-3H-imidazo[4,5-b]pyridin-5-yl)pyrrolo[2,1-f][1,2,4]triazin-2-yl)amino)-3-fluoropiperidin-1-yl)ethan-1-one]: 1.5 nM; for `Nc1nc(N[C@@H]2CCN(C3COC3)C[C@@H]2F)nn2ccc(-c3ccc4ncn(CC(F)(F)F)c4n3)c12` [Compound 128, N^2-((3S,4R)-3-Fluoro-1-(oxetan-3-yl)piperidin-4-yl)-5-(3-(2,2,2-trifluoroethyl)-3H-imidazo[4,5-b]pyridin-5-yl)pyrrolo[2,1-f][1,2,4]triazine-2,4-diamine]: 1.4 nM; for `Nc1nc(N[C@H]2CCN(C3COC3)C[C@H]2F)nn2ccc(-c3ccc4ncn(CC(F)(F)F)c4n3)c12` [Compound 129, N^2-((3R,4S)-3-Fluoro-1-(oxetan-3-yl)piperidin-4-yl)-5-(3-(2,2,2-trifluoroethyl)-3H-imidazo[4,5-b]pyridin-5-yl)pyrrolo[2,1-f][1,2,4]triazine-2,4-diamine]: 1.4 nM. To `Nc1nc(N[C@@H]2CCN(C3COC3)CC2(F)F)nn2ccc(-c3ccc4ncn(CC(F)(F)F)c4n3)c12` [Compound 131, (R)—N^2-(3,3-Difluoro-1-(oxetan-3-yl)piperidin-4-yl)-5-(3-(2,2,2-trifluoroethyl)-3H-imidazo[4,5-b]pyridin-5-yl)pyrrolo[2,1-f][1,2,4]triazine-2,4-diamine] belongs 4.7 nM. The same measure for `CNc1nc(N[C@H]2C[C@](C)(O)C2)nn2ccc(-c3ccc4ncn(CC(F)(F)F)c4n3)c12` [Compound 132, (1r,3r)-1-Methyl-3-((4-(methylamino)-5-(3-(2,2,2-trifluoroethyl)-3H-imidazo [4,5-b]pyridin-5-yl)pyrrolo[2,1-f][1,2,4]triazin-2-yl)amino)cyclobutan-1-ol]: 1.2 nM; for `CNc1nc(N[C@H]2CCN(C(C)=O)C[C@H]2F)nn2ccc(-c3ccc4nc(C)n(C(F)F)c4n3)c12` [Compound 134]: 5 nM; for `CNc1nc(N[C@H]2CCN(C3COC3)C[C@H]2F)nn2ccc(-c3ccc4nc(C)n(C(F)F)c4n3)c12` [Compound 135, 5-(3-(Difluoromethyl)-2-methyl-3H-imidazo[4,5-b]pyridin-5-yl)-N^2-((3R,4S)-3-fluoro-1-(oxetan-3-yl)piperidin-4-yl)-N^4-methylpyrrolo[2,1-f][1,2,4]triazine-2,4-diamine]: 6.4 nM. As to `Cc1nc2ccc(-c3ccn4nc(N[C@@H]5CCN(C6COC6)C[C@@H]5F)nc(N)c34)nc2n1CCF` [Compound 141, N^2-((3S,4R)-3-Fluoro-1-(oxetan-3-yl)piperidin-4-yl)-5-(3-(2-fluoroethyl)-2-methyl-3H-imidazo[4,5-b]pyridin-5-yl)pyrrolo[2,1-f][1,2,4]triazine-2,4-diamine], the IC50 was 3.4 nM.

For `Cc1nc2ccc(-c3ccn4nc(N[C@@H]5CCN(C)CC5(F)F)nc(N)c34)nc2n1CCF` [Compound 142, (R)—N^2-(3,3-Difluoro-1-methylpiperidin-4-yl)-5-(3-(2-fluoroethyl)-2-methyl-3H-imidazo[4,5-b]pyridin-5-yl)pyrrolo[2,1-f][1,2,4]triazine-2,4-diamine], the IC50 stood at 2.7 nM. To `Cc1nc2ccc(-c3c(F)cn4nc(N[C@H]5CC[C@](C)(O)CC5)nc(N)c34)nc2n1CCF` [Compound 143, (1r,4r)-4-((4-Amino-6-fluoro-5-(3-(2-fluoroethyl)-2-methyl-3H-imidazo[4,5-b]pyridin-5-yl)pyrrolo[2,1-f][1,2,4]triazin-2-yl)amino)-1-methylcyclohexan-1-ol] belongs 1.3 nM. Turning to `CC(=O)N1CC[C@H](Nc2nc(N)c3c(-c4ccc5nc(C)n(CCF)c5n4)c(F)cn3n2)[C@H](F)C1` [Compound 144, 1-((3R,4S)-4-((4-Amino-6-fluoro-5-(3-(2-fluoroethyl)-2-methyl-3H-imidazo [4,5-b]pyridin-5-yl)pyrrolo[2,1-f][1,2,4]triazin-2-yl)amino)-3-fluoropiperidin-1-yl)ethan-1-one], the concentration for half-maximal inhibition (IC50) came to 4.2 nM.

With `Cc1nc2ccc(-c3c(F)cn4nc(N[C@H]5CCN(C6COC6)C[C@H]5F)nc(N)c34)nc2n1CCF` [Compound 145, 6-Fluoro-N2-((3R,4S)-3-fluoro-1-(oxetan-3-yl)piperidin-4-yl)-5-(3-(2-fluoroethyl)-2-methyl-3H-imidazo[4,5-b]pyridin-5-yl)pyrrolo[2,1-f][1,2,4]triazine-2,4-diamine], the IC50 was found to be 1.7 nM. Consider `Cc1nc2ccc(-c3c(F)cn4nc(N[C@@H]5CCN(C)CC5(F)F)nc(N)c34)nc2n1CCF` [Compound 146, (R)—N^2-(3,3-Difluoro-1-methylpiperidin-4-yl)-6-fluoro-5-(3-(2-fluoroethyl)-2-methyl-3H-imidazo[4,5-b]pyridin-5-yl)pyrrolo[2,1-f][1,2,4]triazine-2,4-diamine], for which the IC50 is 0.8 nM. To `CC(=O)N1CC[C@@H](Nc2nc(N)c3c(-c4ccc5nc(C)n(CCF)c5n4)c(F)cn3n2)C(F)(F)C1` [Compound 147, (R)-1-(4-((4-Amino-6-fluoro-5-(3-(2-fluoroethyl)-2-methyl-3H-imidazo[4,5-b]pyridin-5-yl)pyrrolo[2,1-f][1,2,4]triazin-2-yl)amino)-3,3-difluoropiperidin-1-yl)ethan-1-one] belongs 1.4 nM; to `Cc1nc2ccc(-c3c(F)cn4nc(N[C@@H]5CCN(C6COC6)CC5(F)F)nc(N)c34)nc2n1CCF` [Compound 149, (R)—N^2-(3,3-Difluoro-1-(oxetan-3-yl)piperidin-4-yl)-6-fluoro-5-(3-(2-fluoroethyl)-2-methyl-3H-imidazo[4,5-b]pyridin-5-yl)pyrrolo[2,1-f][1,2,4]triazine-2,4-diamine], 0.8 nM.

These data come from patent US20250340575A1, “4-AMINOPYRROLO[2,1-F][1,2,4]TRIAZINES AND PREPARATION AND USES THEREOF” (Biosplice Therapeutics, Inc., priority 2024, published 2025).
